Test results reported in ChEMBL document CHEMBL1821651, “Structure-activity relationships of phosphoinositide 3-kinase (PI3K)/mammalian target of rapamycin (mTOR) dual inhibitors: investigations of various 6,5-heterocycles to improve metabolic stability” (J Med Chem, 2011).
≈ marks a conversion by molar mass, not a printed value.

How the values were obtained:
[1] = biological target: Serine/threonine-protein kinase mTOR (Homo sapiens, UniProt P42345); test: Inhibition of recombinant N-terminal GST-tagged mTOR-mediated 4E-BP1 phosphorylation after 60 mins by TR-FRET assay
[2] = biological target: Phosphatidylinositol 4,5-bisphosphate 3-kinase catalytic subunit alpha isoform (Homo sapiens, UniProt P42336); test: Inhibition of human PI3Kalpha using PI(4,5)P2 as substrate after 20 mins by alphascreen assay in presence of 20 uM ATP
Sequence of Phosphatidylinositol 4,5-bisphosphate 3-kinase catalytic subunit alpha isoform (P42336 whole entry, canonical isoform): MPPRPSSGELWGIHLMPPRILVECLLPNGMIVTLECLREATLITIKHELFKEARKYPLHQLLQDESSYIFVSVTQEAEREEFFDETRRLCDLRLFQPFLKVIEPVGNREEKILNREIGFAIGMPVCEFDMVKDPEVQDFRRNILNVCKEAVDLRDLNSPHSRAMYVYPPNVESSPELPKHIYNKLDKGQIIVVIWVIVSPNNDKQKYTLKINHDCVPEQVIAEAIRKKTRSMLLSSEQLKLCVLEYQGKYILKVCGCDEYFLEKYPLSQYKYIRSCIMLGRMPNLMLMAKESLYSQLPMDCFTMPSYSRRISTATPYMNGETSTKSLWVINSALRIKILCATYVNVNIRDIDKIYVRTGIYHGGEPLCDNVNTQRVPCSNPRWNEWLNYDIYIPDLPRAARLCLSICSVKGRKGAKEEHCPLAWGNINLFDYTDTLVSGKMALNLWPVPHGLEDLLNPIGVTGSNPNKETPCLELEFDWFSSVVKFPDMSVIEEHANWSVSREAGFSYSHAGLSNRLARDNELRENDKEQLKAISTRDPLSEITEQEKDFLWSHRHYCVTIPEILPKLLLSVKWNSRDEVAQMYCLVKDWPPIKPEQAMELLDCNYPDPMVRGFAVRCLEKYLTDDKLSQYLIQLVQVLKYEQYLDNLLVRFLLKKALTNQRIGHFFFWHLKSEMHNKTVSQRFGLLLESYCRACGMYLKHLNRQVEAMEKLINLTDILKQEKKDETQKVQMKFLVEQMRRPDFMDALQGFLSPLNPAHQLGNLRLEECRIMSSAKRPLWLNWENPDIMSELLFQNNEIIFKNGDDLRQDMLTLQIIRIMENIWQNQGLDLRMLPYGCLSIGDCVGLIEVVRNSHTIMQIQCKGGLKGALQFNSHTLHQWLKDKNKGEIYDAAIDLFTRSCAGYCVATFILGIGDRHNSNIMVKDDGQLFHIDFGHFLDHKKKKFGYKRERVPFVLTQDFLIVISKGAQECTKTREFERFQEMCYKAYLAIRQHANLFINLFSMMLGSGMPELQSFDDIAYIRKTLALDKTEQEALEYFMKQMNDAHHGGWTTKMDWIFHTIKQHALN

[3] = Volume of distribution in iv dosed Sprague-Dawley rat; format: ADME, organism-based; details: in vivo
[4] = Antitumor activity against human U87MG tumor xenografted in nu/nu CD1 mouse assessed as inhibition of tumor growth at 1 mg/kg, po qd; format: functional, U-87MG ATCC; details: U-87 MG, read-out: GI
[5] = Ratio of drug level in tumor to plasma in nu/nu CD1 mouse xenografted with U87MG tumor at 1 mg/kg, po administered as single dose measured upto 8 hrs; format: ADME, organism-based; parameters: dose 1 mg/kg, route oral; details: tumor and plasma
[6] = AUC in Sprague-Dawley rat at 2 mg/kg, po; format: ADME, organism-based; parameters: dose 2 mg/kg, route oral; details: plasma
[7] = test system: Mus musculus; test: Toxicity in nu/nu CD1 mouse xenografted with human U87MG cells assessed as weight loss at 3 mg/kg, po relative to control; format: organism-based, U-87MG ATCC; parameters: dose 3 mg/kg, route oral; details: in vivo
[8] = Oral bioavailability in Sprague-Dawley rat at 2 mg/kg; format: ADME, organism-based; details: in vivo
[9] = biological target: Phosphatidylinositol 4,5-bisphosphate 3-kinase catalytic subunit gamma isoform (Homo sapiens, UniProt P48736); test: Inhibition of human N-terminal His-tagged PI3Kgamma expressed in insect Sf9 cells using PI(4,5)P2 as substrate after 20 mins by alphascreen assay in presence of 8 uM ATP
Sequence of Phosphatidylinositol 4,5-bisphosphate 3-kinase catalytic subunit gamma isoform (P48736 whole entry, canonical isoform): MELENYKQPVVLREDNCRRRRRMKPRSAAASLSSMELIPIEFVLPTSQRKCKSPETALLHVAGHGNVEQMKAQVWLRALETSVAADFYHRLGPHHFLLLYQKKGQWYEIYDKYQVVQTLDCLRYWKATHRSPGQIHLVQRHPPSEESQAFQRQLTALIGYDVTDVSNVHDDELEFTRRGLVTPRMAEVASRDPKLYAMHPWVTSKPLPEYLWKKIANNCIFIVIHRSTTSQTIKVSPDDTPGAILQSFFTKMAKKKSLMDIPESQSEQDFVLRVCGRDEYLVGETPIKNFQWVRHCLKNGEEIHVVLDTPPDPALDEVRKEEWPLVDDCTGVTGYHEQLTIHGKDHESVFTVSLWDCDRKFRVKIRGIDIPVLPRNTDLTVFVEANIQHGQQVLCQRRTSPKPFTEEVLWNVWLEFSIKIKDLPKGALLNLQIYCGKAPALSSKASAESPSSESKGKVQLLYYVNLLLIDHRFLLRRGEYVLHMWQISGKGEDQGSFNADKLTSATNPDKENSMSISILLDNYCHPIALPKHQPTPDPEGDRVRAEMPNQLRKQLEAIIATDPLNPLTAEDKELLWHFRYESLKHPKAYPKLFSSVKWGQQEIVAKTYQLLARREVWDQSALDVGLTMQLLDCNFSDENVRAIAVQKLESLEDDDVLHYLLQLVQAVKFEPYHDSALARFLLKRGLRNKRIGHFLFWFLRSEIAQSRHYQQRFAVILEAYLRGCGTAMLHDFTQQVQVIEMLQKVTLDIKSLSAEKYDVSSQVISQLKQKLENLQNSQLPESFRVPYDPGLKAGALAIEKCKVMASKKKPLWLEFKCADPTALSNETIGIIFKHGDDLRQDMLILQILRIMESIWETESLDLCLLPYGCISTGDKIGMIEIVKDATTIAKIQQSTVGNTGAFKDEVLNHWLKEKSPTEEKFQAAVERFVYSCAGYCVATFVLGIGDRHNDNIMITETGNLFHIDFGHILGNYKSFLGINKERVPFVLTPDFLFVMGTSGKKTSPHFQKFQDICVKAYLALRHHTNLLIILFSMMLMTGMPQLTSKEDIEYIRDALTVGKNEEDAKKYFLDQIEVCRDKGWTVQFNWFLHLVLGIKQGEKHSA

[10] = test system: Rattus norvegicus; test: Liver blood flow in iv dosed Sprague-Dawley rat; format: ADME, organism-based; details: in vivo
[11] = test system: Mus musculus; test: In vivo inhibition of PI3Kalpha-mediated Akt phosphorylation in nu/nu CD1 mouse xenografted with U87MG tumor; format: functional, organism-based; details: CD1, U-87 MG
[12] = biological target: Phosphatidylinositol 4,5-bisphosphate 3-kinase catalytic subunit beta isoform (Homo sapiens, UniProt P42338); test: Inhibition of human N-terminal His-tagged PI3Kbeta expressed in insect Sf9 cells using PI(4,5)P2 as substrate after 20 mins by alphascreen assay in presence of 20 uM ATP
Sequence of Phosphatidylinositol 4,5-bisphosphate 3-kinase catalytic subunit beta isoform (P42338 whole entry, canonical isoform): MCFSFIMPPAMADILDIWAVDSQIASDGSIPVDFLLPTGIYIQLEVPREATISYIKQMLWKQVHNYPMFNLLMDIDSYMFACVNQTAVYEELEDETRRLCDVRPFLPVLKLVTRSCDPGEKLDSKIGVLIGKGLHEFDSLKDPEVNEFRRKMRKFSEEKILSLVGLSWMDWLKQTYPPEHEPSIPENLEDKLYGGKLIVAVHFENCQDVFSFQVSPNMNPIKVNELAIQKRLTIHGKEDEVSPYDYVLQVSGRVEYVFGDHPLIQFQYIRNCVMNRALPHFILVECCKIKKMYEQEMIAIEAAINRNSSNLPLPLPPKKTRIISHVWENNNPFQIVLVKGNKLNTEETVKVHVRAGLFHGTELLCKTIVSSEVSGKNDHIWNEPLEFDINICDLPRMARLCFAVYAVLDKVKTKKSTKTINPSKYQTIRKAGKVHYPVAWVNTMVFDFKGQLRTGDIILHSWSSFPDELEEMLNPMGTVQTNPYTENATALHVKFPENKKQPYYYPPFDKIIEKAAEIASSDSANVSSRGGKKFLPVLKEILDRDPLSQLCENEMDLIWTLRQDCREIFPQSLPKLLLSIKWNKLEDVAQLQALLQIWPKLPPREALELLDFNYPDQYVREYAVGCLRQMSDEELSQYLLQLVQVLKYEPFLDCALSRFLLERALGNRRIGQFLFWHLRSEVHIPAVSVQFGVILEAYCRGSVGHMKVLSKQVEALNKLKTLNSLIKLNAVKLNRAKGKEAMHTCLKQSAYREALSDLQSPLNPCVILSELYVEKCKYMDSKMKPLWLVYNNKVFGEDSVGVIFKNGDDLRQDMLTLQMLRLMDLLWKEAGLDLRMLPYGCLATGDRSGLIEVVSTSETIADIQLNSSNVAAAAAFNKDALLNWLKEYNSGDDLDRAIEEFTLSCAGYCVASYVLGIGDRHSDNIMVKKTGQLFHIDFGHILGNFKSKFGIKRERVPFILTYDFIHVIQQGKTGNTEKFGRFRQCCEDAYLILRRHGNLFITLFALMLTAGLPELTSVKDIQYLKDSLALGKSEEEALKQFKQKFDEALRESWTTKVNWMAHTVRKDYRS

[13] = Antitumor activity against human U87MG tumor xenografted in po dosed nu/nu CD1 mouse assessed as tumor growth delay; format: functional, U-87MG ATCC; details: U-87 MG
[14] = Ratio of drug level in tumor to plasma in nu/nu CD1 mouse xenografted with U87MG tumor at 3 mg/kg, po administered as single dose measured upto 16 hrs; format: ADME, organism-based; parameters: dose 3 mg/kg, route oral; details: tumor and plasma
[15] = Clearance in iv dosed Sprague-Dawley rat; format: ADME, organism-based; details: in vivo
[16] = biological target: T1, Phosphatidylinositol 4,5-bisphosphate 3-kinase catalytic subunit delta isoform (Homo sapiens, UniProt O00329); test: Inhibition of human N-terminal His-tagged PI3Kdelta expressed in insect Sf9 cells using PI(4,5)P2 as substrate after 20 mins by alphascreen assay in presence of 8 uM ATP
T1 sequence (O00329 whole entry): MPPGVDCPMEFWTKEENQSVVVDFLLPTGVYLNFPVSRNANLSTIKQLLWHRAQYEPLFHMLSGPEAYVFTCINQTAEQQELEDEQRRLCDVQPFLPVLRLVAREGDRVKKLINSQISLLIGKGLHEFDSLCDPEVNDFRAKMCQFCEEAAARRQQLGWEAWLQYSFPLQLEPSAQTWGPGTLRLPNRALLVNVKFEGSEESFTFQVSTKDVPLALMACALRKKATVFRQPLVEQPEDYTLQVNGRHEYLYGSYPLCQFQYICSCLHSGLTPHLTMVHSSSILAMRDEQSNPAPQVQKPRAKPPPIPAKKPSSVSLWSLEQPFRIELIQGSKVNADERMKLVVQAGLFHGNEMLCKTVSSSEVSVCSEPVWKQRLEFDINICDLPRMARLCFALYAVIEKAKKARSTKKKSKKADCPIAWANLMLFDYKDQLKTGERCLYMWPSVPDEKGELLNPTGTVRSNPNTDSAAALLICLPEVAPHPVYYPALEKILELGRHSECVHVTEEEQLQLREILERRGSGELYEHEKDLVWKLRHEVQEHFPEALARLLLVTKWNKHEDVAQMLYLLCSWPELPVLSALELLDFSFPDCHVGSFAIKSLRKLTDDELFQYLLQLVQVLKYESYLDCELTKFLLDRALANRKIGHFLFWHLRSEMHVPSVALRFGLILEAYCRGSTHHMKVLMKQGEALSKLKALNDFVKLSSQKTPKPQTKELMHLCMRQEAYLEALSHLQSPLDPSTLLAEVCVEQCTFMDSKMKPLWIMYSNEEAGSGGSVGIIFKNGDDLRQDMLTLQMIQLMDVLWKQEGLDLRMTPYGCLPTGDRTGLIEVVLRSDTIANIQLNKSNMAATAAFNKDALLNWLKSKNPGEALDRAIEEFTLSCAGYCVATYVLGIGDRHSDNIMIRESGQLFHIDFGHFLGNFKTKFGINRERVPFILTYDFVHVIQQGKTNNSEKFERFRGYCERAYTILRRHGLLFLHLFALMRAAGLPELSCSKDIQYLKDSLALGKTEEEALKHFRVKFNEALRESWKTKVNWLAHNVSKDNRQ

[17] = Elimination half life in iv dosed Sprague-Dawley rat; format: ADME, organism-based; details: in vivo, read-out: beta t1/2 (converted)
[18] = test system: Plasma; test: Plasma EC50 for pAkt inhibition in nu/nu CD1 mouse xenografted with U87 MG tumor
[19] = AUC (0 to 24 hrs) in plasma of nu/nu CD1 mouse xenografted with human U87MG cells at ED50; format: ADME, organism-based, U-87MG ATCC; parameters: time < 24 hr
[20] = Clearance in Beagle dog liver microsomes; format: ADME, Canis lupus familiaris, Microsome
[21] = in vitro; details: human, liver microsomes
Description: Clearance in human liver microsomes

[22] = Clearance in mouse liver microsomes; format: ADME, Microsome
[23] = species on record: Mus musculus; test: Liver blood flow in mouse; format: ADME, organism-based
[24] = in vitro; details: Sprague-Dawley, rat, liver microsomes
Description: Clearance in Sprague-Dawley rat liver microsomes

[25] = species on record: Rattus norvegicus; test: Liver blood flow in Sprague-Dawley rat; format: ADME, organism-based
[26] = species on record: Canis familiaris; test: Liver blood flow in Beagle dog; format: ADME, organism-based, Canis lupus familiaris
[27] = Clearance in cynomolgus monkey liver microsomes; format: ADME, Macaca fascicularis, Microsome

`O=S(=O)(Nc1cc(-c2ccc3nccn3n2)cnc1Cl)c1ccc(F)cc1` gave an IC50 [1] of 49 nM and a Ki [2] of 6.1 nM.

`O=S(=O)(Nc1cc(-c2ccc3ncoc3c2)cnc1Cl)c1ccc(F)cc1` showed an IC50 [1] of 76 nM and a Ki [2] of 26 nM.

`CC(=O)Nc1cn2nc(-c3cnc(Cl)c(NS(=O)(=O)c4ccc(F)cc4)c3)ccc2n1` showed a Vd [3] of 0.27 L/kg, an inhibition in vivo at 1 mg/kg [4] of 49% and an IC50 [1] of 0.4 nM. The Kp at 8 h [5] was 0.13, the AUC [6] was 11500 ng·h/mL and the Activity [7] was less than 5%. For the same molecule, the bioavailability [8] was 46%, the Ki [9] was 1.9 nM and the QH [10] was 1.2%. It also gave an EC50 [11] of 0.232 µg/mL (≈ 0.503 µM), a Ki [2] of 1.4 nM and a Ki [12] of 3.5 nM. For the same molecule, the ED50 [13] was 0.7 mg/kg, the Kp at 16 h [14] was 0.27 and the clearance [15] was 0.667 mL/min/kg. It also gave a Ki [16] of 0.8 nM, a half-life [17] of 7 h and an EC50 [18] of 500 nM. It also gave an AUC(0-t) at 24 h [19] of 9200 ng·h/mL.

Work on `O=S(=O)(Nc1cc(-c2ccc3ncsc3c2)cnc1Cl)c1ccc(F)cc1` yielded an IC50 [1] of 33 nM.

Work on `O=S(=O)(Nc1cc(-c2ccc3nccn3c2)cnc1Cl)c1ccc(F)cc1` yielded an IC50 [1] of 229 nM and a Ki [2] of 23 nM.

Work on `Nc1nc2ccc(-c3cnc(Cl)c(NS(=O)(=O)c4ccc(F)cc4)c3)cc2[nH]1` yielded an IC50 [1] of 430 nM and a Ki [2] of 119 nM.

`CC(=O)Nc1nc2ccc(-c3cnc(Cl)c(NS(=O)(=O)c4ccc(F)cc4)c3)cc2[nH]1` showed an IC50 [1] of 20 nM and a Ki [2] of 3.3 nM.

For `CC(=O)Nc1nc2ccc(-c3cnc(Cl)c(NS(=O)(=O)c4ccc(F)cc4)c3)cc2s1`, the microsomal CLint [20] was less than 26 µL/min/mg, the microsomal CLint [21] was less than 26 µL/min/mg and the microsomal CLint [22] was less than 26 µL/min/mg. It also gave a QH [23] of 0.2%, a microsomal CLint [24] of less than 26 µL/min/mg and a QH [25] of 0.2%. For the same molecule, the QH [26] was 0.2% and the microsomal CLint [27] was less than 26 µL/min/mg.

Molecule `Nc1nc2ccc(-c3cnc(Cl)c(NS(=O)(=O)c4ccc(F)cc4)c3)cc2o1` has an IC50 [1] of 70 nM and a Ki [2] of 7.2 nM.

In the case of `O=S(=O)(Nc1cc(-c2ccc3sncc3c2)cnc1Cl)c1ccc(F)cc1`, the IC50 [1] is reported as 292 nM and the Ki [2] is reported as 76 nM.

For `Nc1cn2nc(-c3cnc(Cl)c(NS(=O)(=O)c4ccc(F)cc4)c3)ccc2n1`, the IC50 [1] was 35 nM and the Ki [2] was 11 nM.

With `Nc1cn2cc(-c3cnc(Cl)c(NS(=O)(=O)c4ccc(F)cc4)c3)ccc2n1` the IC50 [1] was 20 nM and the Ki [2] was 2.8 nM.

For `CC(=O)Nc1cn2cc(-c3cnc(Cl)c(NS(=O)(=O)c4ccc(F)cc4)c3)ccc2n1`, the IC50 [1] was 6.6 nM and the Ki [2] was 1.2 nM.

For `O=S(=O)(Nc1cc(-c2ccc3nc[nH]c3c2)cnc1Cl)c1ccc(F)cc1`, the IC50 [1] was 446 nM and the Ki [2] was 68 nM.

Molecule `CC(=O)Nc1nc2ccc(-c3cnc(Cl)c(NS(=O)(=O)c4ccc(F)cc4)c3)cc2o1` has an IC50 [1] of 146 nM and a Ki [2] of 47 nM.

For `O=S(=O)(Nc1cc(-c2ccc3nncn3c2)cnc1Cl)c1ccc(F)cc1`, the IC50 [1] was greater than 25000 nM and the Ki [2] was 51 nM.

Work on `Nc1nc2ccc(-c3cnc(Cl)c(NS(=O)(=O)c4ccc(F)cc4)c3)cc2s1` yielded an IC50 [1] of 24 nM.
